# Laboratory results taken from patent US20080182898A1, “Treatment of metabolic syndrome with norfluoxetine” (AMPLA Pharmaceuticals Inc., priority 2007, published 2008).
# Molecular target: CB1 receptor (Homo sapiens, UniProt P21554)
# Assay: functional activity versus the CB1 receptor
# Conditions: qualitative statement, no method or numbers given
# Sequence of CB1 receptor (P21554 whole entry): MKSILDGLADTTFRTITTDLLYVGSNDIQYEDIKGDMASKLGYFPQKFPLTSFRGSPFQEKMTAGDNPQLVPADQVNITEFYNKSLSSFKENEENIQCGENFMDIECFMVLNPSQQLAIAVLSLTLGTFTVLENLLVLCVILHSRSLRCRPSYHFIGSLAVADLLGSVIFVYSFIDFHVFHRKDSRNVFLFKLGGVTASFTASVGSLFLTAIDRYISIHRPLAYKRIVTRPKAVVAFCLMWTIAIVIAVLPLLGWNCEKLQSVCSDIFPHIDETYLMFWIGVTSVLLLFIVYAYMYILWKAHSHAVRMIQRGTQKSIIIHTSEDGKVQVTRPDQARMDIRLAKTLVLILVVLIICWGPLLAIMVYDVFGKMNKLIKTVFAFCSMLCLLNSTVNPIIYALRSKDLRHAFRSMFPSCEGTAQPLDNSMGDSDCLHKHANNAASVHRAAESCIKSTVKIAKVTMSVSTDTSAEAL
row,Compound,functional activity versus the CB1 receptor (mode of action)
1,CNCC[C@@H](Oc1ccc(C(F)(F)F)cc1)c1ccccc1 [(R)-fluoxetine],antagonist
2,CNCC[C@H](Oc1ccc(C(F)(F)F)cc1)c1ccccc1 [(S)-Fluoxetine],inverse agonist
3,"NCCC(Oc1ccc(C(F)(F)F)cc1)c1ccccc1 (racemic) [racemate of norfluoxetine, 3-(4-trifluoromethylphenoxy)3-phenylpropylamine]",antagonist
